Test results reported in US9999222B2, “Herbicidal combination comprising azines” (BASF SE, priority 2014, dated 2018).
“And” between values parts separate entries of the source, which are not always exact repeats. Equal values may be shown once. Read-outs that look alike come from different tables or passages of the source.

Columns and labels:
Assay in all cases: Greenhouse test, pre-emergence treatment
[1] = test system: APESV; format: in vivo, Apera spica-venti; conditions: for inhibition at 12.5 g/ha: use rate 12.5 g ai/ha; for inhibition at 25 g/ha: use rate 25 g ai/ha
Text: (§1) The culture containers used were plastic flowerpots containing loamy sand with approximately 3.0% of humus as the substrate. The seeds of the test plants were sown separately for each species.
(§2) For the pre-emergence treatment, the active ingredients, which had been suspended or emulsified in water, were applied directly after sowing by means of finely distributing nozzles. The containers were irrigated gently to promote germination and growth and subsequently covered with transparent plastic hoods until the plants had rooted. This cover caused uniform germination of the test plants, unless this had been impaired by the active ingredients.
(§3) Depending on the species, the plants were kept at 10-25° C. or 20-35° C., respectively.
(§4) The test period extended over 2 to 4 weeks. During this time, the plants were tended, and their response to the individual treatments was evaluated.
(§5) Evaluation was carried out using a scale from 0 to 100. 100 means no emergence of the plants, or complete destruction of at least the aerial moieties, and 0 means no damage, or normal course of growth. A moderate herbicidal activity is given at values of at least 60, a good herbicidal activity is given at values of at least 70, and a very good herbicidal activity is given at values of at least 85.
(§6) The respective stated components a and b, and if appropriate, c were formulated as a 10% by weight strength emulsion concentrate and, with addition of the amount of solvent system, introduced into the spray liquor used for applying the active compound.
(§7) In the examples, the solvent used was water.
(§8) In the examples below, using the method of S. R. Colby (1967) “Calculating synergistic and antagonistic responses of herbicide combinations”, Weeds 15, p. 22ff., the value E, which is expected if the activity of the individual active compounds is only additive, was calculated. E=X+Y−(X·Y/100) where • X=percent activity using active compound a at an application rate A; • Y=percent activity using active compound b at an application rate B; • E=expected activity (in %) by a+b at application rates A+B.
(§9) If the value found experimentally is higher than the value E calculated according to Colby, a synergistic effect is present.

[2] = test system: MATIN; format: in vivo
[3] = test system: VIOAR; format: in vivo, Viola arvensis
Text: as §1, §2, §3, §4, §5, §6, §7, §8, §9

[4] = test system: SETVI; format: in vivo, Setaria viridis
Text: as §1, §2, §3, §4, §5, §6, §7, §8, §9

[5] = test system: DIGSA; format: in vivo, Digitaria sanguinalis; conditions: 8 g ai/ha
[6] = test system: SORHA; format: in vivo, Sorghum halepense; conditions: Sorghum halepense, pre-emergence, read-out: observed % activity; for inhibition at 250 g/ha: 250 g ai/ha; for inhibition at 8 g/ha: 8 g ai/ha; for inhibition at 16 g/ha: 16 g ai/ha
Text: as §1, §2, §3, §4, §5, §6, §7, §8, §9

[7] = test system: CENCY; format: in vivo, Centaurea cyanus
[8] = test system: IPOHE; format: in vivo, Ipomoea hederacea; conditions: Ipomoea hederacea, 480 h
Outline: (§10)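 Seeds were sown in loamy sand with about 3.0% humus, and compounds in water were sprayed immediately after sowing, alone or as combinations formulated as 10% emulsion concentrates. Plants grew under hoods until rooted, at 10-25 °C or 20-35 °C by species, for 2 to 4 weeks. Damage was scored 0-100 (100 = no emergence or complete destruction), and Colby expected values were E=X+Y−(X·Y/100).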

[9] = test system: CENCY; format: in vivo; conditions: 480 h, read-out: observed % activity 20 DAT
[10] = test system: ERICA; format: in vivo; conditions: 480 h, 125 g ai/ha, read-out: observed % activity 20 DAT
[11] = test system: ANTAR; format: in vivo; conditions: Anthemis arvensis, 480 h, 20 DAT, read-out: observed % activity
Outline: as §10

[12] = test system: DIGSA; format: in vivo; conditions: Digitaria sanguinalis, 480 h, read-out: observed % activity 20 DAT
[13] = test system: CENCY; format: in vivo; conditions: 480 h, individual, read-out: observed % activity 20 DAT
[14] = test system: ERICA; format: in vivo, Erigeron canadensis
[15] = Apera spica-venti, 480 h, APESV, 20 DAT, read-out: observed % activity 20 DAT
[16] = Apera spica-venti, 480 h, read-out: observed % activity 20 DAT

## CC(C)(F)c1nc(N)nc(Nc2c(F)c(F)cc(F)c2F)n1 [compound 2, 6-(1-Fluoro-1-methyl-ethyl)-N4-(2,3,5,6-tetrafluorophenyl)-1,3,5-triazine-2,4-diamine]
[1]; Apera spica-venti, 480 h, APESV, use rate 1 g ai/ha, 20 DAT, read-out: observed % activity 20 DAT
  inhibition at 1 g/ha: 95%
[1]; Apera spica-venti, 480 h, APESV, use rate 2 g ai/ha, 20 DAT, read-out: observed % activity 20 DAT
  inhibition at 2 g/ha: 95%
[1]; use rate 2 g ai/ha, 20 DAT
  observed % activity 20 DAT: 90% and 95%
[1]; use rate 4 g ai/ha, 20 DAT
  observed % activity 20 DAT: 98%
[2]; use rate 1 g ai/ha
  observed % activity 20 DAT: 98%
[3]; use rate 2 g ai/ha
  observed % activity 20 DAT: 50%

## COCC(C)N(C(=O)CCl)c1c(C)csc1C (stereo not shown) [Dimethenamid, dimethenamid]
[1]; use rate 62.5 g ai/ha, 20 DAT
  observed % activity 20 DAT: 95%
[2]; use rate 62.5 g ai/ha
  observed % activity 20 DAT: 70%
[2]; use rate 125 g ai/ha
  observed % activity 20 DAT: 90%
[3]; Viola arvensis, 480 h, use rate 31.25 g ai/ha, read-out: observed % activity 20 DAT
  inhibition at 31.25 g/ha: 0%
[3]; Viola arvensis, 480 h, use rate 62.5 g ai/ha, read-out: observed % activity 20 DAT
  inhibition at 62.5 g/ha: 0%
[3]; Viola arvensis, 480 h, use rate 125 g ai/ha, read-out: observed % activity 20 DAT
  inhibition at 125 g/ha: 0%
[3]; use rate 31.25 g ai/ha
  observed % activity 20 DAT: 0%
[3]; use rate 62.5 g ai/ha
  observed % activity 20 DAT: 0%
[3]; use rate 125 g ai/ha
  observed % activity 20 DAT: 0%

## Cn1nc(C(F)(F)F)c(CS(=O)(=O)C2=NOC(C)(C)C2)c1OC(F)F [Pyroxasulfone, pyroxasulfone]
[1]; [15]
  inhibition at 12.5 g/ha: 40%
  inhibition at 25 g/ha: 50%
[1]; [16]
  inhibition at 12.5 g/ha: 50%
  inhibition at 25 g/ha: 60%
[4]; 8 g ai/ha
  observed % activity 20 DAT: 85%
[5]
  observed % activity 20 DAT: 95%
[6]; 480 h, 6 g ai/ha, 20 DAT
  inhibition at 6 g/ha: 75%
[6]; 480 h, 24 g ai/ha, 20 DAT
  inhibition at 24 g/ha: 98%
[7]; 24 g ai/ha
  observed % activity 20 DAT: 15%
[8]; 24 g ai/ha, read-out: observed % activity 20 DAT
  pest or weed control at 24 g/ha: 10%

## CSc1nnc(C(C)(C)C)c(=O)n1N [metribuzin]
[9]; 125 g ai/ha
  inhibition at 125 g/ha: 75%
[9]; 250 g ai/ha
  inhibition at 250 g/ha: 85%
[10]
  inhibition at 125 g/ha: 98%
[4]; Setaria viridis, 480 h, 125 g ai/ha, read-out: observed % activity 20 DAT
  inhibition at 125 g/ha: 65%
[4]; Setaria viridis, 480 h, 250 g ai/ha, read-out: observed % activity 20 DAT
  inhibition at 250 g/ha: 95%
[6]; 480 h, 20 DAT
  inhibition at 250 g/ha: 45%
[8]; 250 g ai/ha, read-out: observed % activity 20 DAT
  inhibition at 250 g/ha: 20%

## CC(C)N(C)S(=O)(=O)NC(=O)c1cc(-n2c(=O)cc(C(F)(F)F)n(C)c2=O)c(F)cc1Cl [Saflufenacil, saflufenacil]
[11]; 5 g ai/ha
  inhibition at 5 g/ha: 98%
[1]; Apera spica-venti, 480 h, APESV, use rate 3.125 g ai/ha, 20 DAT, read-out: observed % activity 20 DAT
  inhibition at 3.125 g/ha: 0%
[9]; 5 g ai/ha
  inhibition at 5 g/ha: 20%
[9]; 10 g ai/ha
  inhibition at 10 g/ha: 30%
[12]; 18 g ai/ha
  inhibition at 18 g/ha: 0%
[12]; 36 g ai/ha
  inhibition at 36 g/ha: 65%
[13]; use rate 5 g ai/ha
  inhibition at 5 g/ha: 20%
[13]; use rate 10 g ai/ha
  inhibition at 10 g/ha: 30%

## CC1(c2nc(N)nc(Nc3c(F)c(F)cc(F)c3F)n2)CCC1 [compound 8, 6-(1-methylcyclobutyl)-N4-(2,3,5,6-tetrafluorophenyl)-1,3,5-triazine-2,4-diamine]
[11]; 8 g ai/ha
  inhibition at 8 g/ha: 80%
[11]; 16 g ai/ha
  inhibition at 16 g/ha: 85%
[6]; 192 h, 8 DAT
  inhibition at 8 g/ha: 90%
  inhibition at 16 g/ha: 90%
[6]; 480 h, 20 DAT
  inhibition at 8 g/ha: 90%
  inhibition at 16 g/ha: 90%
[8]; 16 g ai/ha, 20 DAT, read-out: observed % activity
  inhibition at 16 g/ha: 35%

## CCC(CC)Nc1c([N+](=O)[O-])cc(C)c(C)c1[N+](=O)[O-] [Pendimethalin, pendimethalin]
[1]; Apera spica-venti, 480 h, use rate 125 g ai/ha, read-out: observed % activity 20 DAT
  inhibition at 125 g/ha: 85%
[1]; Apera spica-venti, 480 h, use rate 250 g ai/ha, read-out: observed % activity 20 DAT
  inhibition at 250 g/ha: 75%
[1]; Apera spica-venti, 480 h, use rate 500 g ai/ha, read-out: observed % activity 20 DAT
  inhibition at 500 g/ha: 95%
[1]; use rate 125 g ai/ha, 20 DAT
  observed % activity 20 DAT: 60%
[1]; use rate 250 g ai/ha, 20 DAT
  observed % activity 20 DAT: 75%
[1]; use rate 500 g ai/ha, 20 DAT
  observed % activity 20 DAT: 95%
[14]; 500 g ai/ha
  observed % activity 20 DAT: 90%
[14]; 1000 g ai/ha
  observed % activity 20 DAT: 90%
[3]; use rate 500 g ai/ha
  observed % activity 20 DAT: 80%
[6]; 480 h, 20 DAT
  inhibition at 250 g/ha: 75%
[6]; 480 h, 500 g ai/ha, 20 DAT
  inhibition at 500 g/ha: 85%
[7]; 500 g ai/ha
  observed % activity 20 DAT: 25%
[7]; 1000 g ai/ha
  observed % activity 20 DAT: 0%
[8]; 500 g ai/ha, read-out: observed % activity 20 DAT
  pest or weed control at 500 g/ha: 0%
[8]; 1000 g ai/ha, read-out: observed % activity 20 DAT
  pest or weed control at 1000 g/ha: 0%

## CC(C)N(C(=O)COc1nnc(C(F)(F)F)s1)c1ccc(F)cc1 [Flufenacet, flufenacet]
[3]; use rate 30 g ai/ha
  observed % activity 20 DAT: 0%
[6]; 480 h, 40 g ai/ha, 20 DAT
  inhibition at 40 g/ha: 95%
